These results are taken from US7910141B2, “Antiallergic composition” (Sapporo Breweries Limited, priority 2005, dated 2011).

The test system of the assay is ICR mice. The assay is described as follows: DNP-HSA-induced auricular edema in mice (passive cutaneous anaphylaxis). The class given is in vivo, mouse. As to conditions: FIG. 8 experiment. Here is the method: Inhibiting Action of Hop Water Extract on DNP-HSA-Induced Auricular Edema in Mice: • Six-week-old ICR mice (male or female; Charles River Laboratories, Japan Inc.) were separated into 4-5 per cage and raised at room temperature (24±2° C.) and 55±15% humidity, with a 12 hour light/dark cycle (light: 8:00-20:00). After preparatory rearing for at least one week, they were provided for the test. A hop pellet water extract, hop leaf water extract or ketotifen fumarate aqueous solution (10 mL/kg) was forcedly administered orally to each test group, while 10 mL/kg of distilled water was forcedly administered orally to the control group. The hop pellet water extract was prepared by adding hop pellets (Czech Saaz) to distilled water to 10% (w/w) and extracting overnight at 4° C., and then centrifuging at 3000 rpm for 10 minutes and filtering. The hop leaf water extract was prepared by adding dry hop leaves (Kokusan hop young leaves) to distilled water to 10% (w/w) and extracting overnight at 4° C., and then centrifuging at 3000 rpm for 10 minutes and filtering. The ketotifen fumarate aqueous solution was prepared by dissolving in distilled water to a concentration of 0.5 mg/mL.
At 1 hour after oral administration, 20 μL of 10 μg/mL mouse anti-DNP-IgE antibody (Sigma) was intradermally injected into one auricle of each mouse, while 20 μL of physiological saline (PS) was intradermally injected into the other auricle. […] The auricular thickness before antigen administration and 30 minutes after antigen administration was measured three times each using a thickness gauge, and the auricular edema ratio and auricular thickness increase were determined. […] The auricular edema ratio (%) was calculated by the formula: (Mean auricular thickness 30 minutes after antigen administration−mean auricular thickness before antigen administration)×100/mean auricular thickness […], and the auricular thickness increase (mm) was calculated by the formula: Mean auricular thickness 30 minutes after antigen administration−mean auricular thickness before antigen administration.

Where [1] appears, read: oral 10 mL/kg, intradermal injection of IgE antibody, 30 minutes after antigen.

Where a name gives a salt, the structure may show the parent alone.

As to `CN1CCC(=C2c3ccccc3CC(=O)c3sccc32)CC1` [ketotifen fumarate], under “ketotifen p<0.05, hop extracts p value of 0.08, critical region 5%”, the “auricular edema ratio compared to the distilled water-administered group (t-test)” value was “significantly inhibited”. Besides, under setting [1], the auricular edema ratio came to 12.7±5.4% and the auricular thickness increase is on record as 0.045±0.020 mm.
